According to article PMC10035387 (Cancer Research Communications, 2022):
Read-outs that look alike come from different tables or passages of the source.

Assays:
[1] = tested on: metastatic pancreatic cancer; settings: cited from earlier work; for Median OS: P < 0.001; for Efficacy in randomized clinical trials: patients with PDAC
[2] = Phase Ib study: adverse events, dose-limiting toxicities, MTD
Description: The criteria for dose escalation were based on a modified toxicity probability method ([20]), using a statistical probability algorithm calculated with all patients treated at the same dose level. […] The study was conducted in accordance with legal and regulatory requirements and the Declaration of Helsinki. Prior to participant enrollment, the study was approved by the Institutional Review Board/Ethics Committee at each site at which it was conducted. Patients provided written informed consent before any study procedures were performed.

phospho-Rb (pRb) = test: pRb IHC in serial paired skin biopsy specimens; type: in vivo, human; settings: skin biopsies
Ki67 = Ki67 IHC in serial paired skin biopsy specimens; type: in vivo, human; settings: skin biopsies
[3] = human, in vivo
Description: (§1) Other outcomes included safety, pharmacokinetics, pharmacodynamics, tissue/blood biomarkers, objective tumor response, progression-free survival (PFS), and OS assessments.

[4] = cited from earlier work
[5] = tested on: PDAC cell lines that retain RB1 expression; design: method as in PMID 29080858; settings: cited from earlier work
[6] = Phase Ib study: plasma pharmacokinetics; settings: steady state, overall population
Description: as §1

[7] = tested on: cytochrome P450 (CYP) 2C8 and CYP3A4; design: method as in earlier work; settings: cited from earlier work
Panc265 model = settings: cited from earlier work
[8] = after 2 weeks of palbociclib treatment, first-line MTD group
[9] = after a further 2 weeks of palbociclib treatment
[10] = after the 1-week palbociclib break, before cycle 2
[11] = PALOMA-1, patients with breast cancer
[12] = PALOMA-2, patients with breast cancer

Molecule: FOLFIRINOX
- Median OS ([1]; FOLFIRINOX versus gemcitabine): 11.1 months

Molecule: CC(=O)c1c(C)c2cnc(Nc3ccc(N4CCNCC4)cn3)nc2n(C2CCCC2)c1=O [palbociclib]
- Permanent discontinuation of palbociclib due to bacterial gastritis ([2]; all patients): 1.3%
- Permanent discontinuation of palbociclib due to infection ([2]; all patients): 1.3%
- Permanent discontinuation of palbociclib due to sepsis ([2]; all patients): 1.3%
- MTD of palbociclib ([2]; for 21 of every 28 days, with nab-paclitaxel): 100 mg
- pRb level (phospho-Rb (pRb); [8]): decreased
- pRb level (phospho-Rb (pRb); [9]): decreased again to below baseline
- pRb level (phospho-Rb (pRb); [10]): rebounded to baseline or higher levels
- Ki67 level (Ki67; [8]): decreased
- Ki67 level (Ki67; [9]): decreased again to below baseline
- Ki67 level (Ki67; [10]): rebounded to baseline or higher levels
- CL/F, geometric mean [3]: 79.95 L/h
- CL/F, median [3]: 74.10 L/h
- Ctrough, geometric mean [3]: 34.89 ng/mL
- Ctrough, median [3]: 34.60 ng/mL
- tmax, median [3]: 4.17 h
- Clinical activity ([1]; CDKN2A-mutated advanced pancreatic cancer): did not have meaningful clinical activity
- AUCτ [4, 11]: 1,933 ng·hour/mL
- Cmax [4, 11]: 108 ng/mL
- AUCτ [4, 12]: 1,992 ng·hour/mL
- Cmax [4, 12]: 110 ng/mL
- Effect on PDAC cell lines [5]: induces cell-cycle arrest and apoptosis
- Dose-normalized geometric mean AUCτ [6]: 1,569 ng·hour/mL
- Dose-normalized geometric mean Cmax [6]: 90.44 ng/mL

Molecule: CC(=O)O[C@H]1C(=O)[C@@]2(C)[C@H]([C@H](OC(=O)c3ccccc3)[C@]3(O)C[C@H](OC(=O)[C@H](O)[C@@H](NC(=O)c4ccccc4)c4ccccc4)C(C)=C1C3(C)C)[C@]1(OC(C)=O)CO[C@@H]1C[C@@H]2O [Paclitaxel]
- Metabolizing enzymes [7]: metabolized primarily by cytochrome P450 (CYP) 2C8 and CYP3A4

Molecule: CCc1cnn2c(NCc3ccc[n+]([O-])c3)cc(N3CCCC[C@H]3CCO)nc12 [dinaciclib]
- Sensitivity of Panc265 model (Panc265 model): sensitive

Molecule: Nc1ccn([C@@H]2O[C@H](CO)[C@@H](O)C2(F)F)c(=O)n1 [gemcitabine]
- Median OS ([1]; FOLFIRINOX versus gemcitabine): 6.8 months
- Median OS ([1]; GA versus gemcitabine alone, metastatic pancreatic cancer): 6.7 months

B1: pegilodecakin: agent not efficacious in randomized clinical trials in PDAC (protein, UniProt P22301 19-178, looked up)
Interleukin-10: SPGQGTQSENSCTHFPGNLPNMLRDLRDAFSRVKTFFQMKDQLDNLLLKESLLEDFKGYLGCQALSEMIQFYLEEVMPQAENQDPDIKAHVNSLGENLKTLRLRLRRCHRFLPCENKSKAVEQVKNAFNKLQEKGIYKAMSEFDIFINYIEAYMTMKIRN
modifications: PEGylated
- Efficacy in randomized clinical trials [1]: not efficacious

B2: PEGPH20: agent not efficacious in randomized clinical trials in PDAC (protein, UniProt P38567 36-490, looked up)
Hyaluronidase PH-20: LNFRAPPVIPNVPFLWAWNAPSEFCLGKFDEPLDMSLFSFIGSPRINATGQGVTIFYVDRLGYYPYIDSITGVTVNGGIPQKISLQDHLDKAKKDITFYMPVDNLGMAVIDWEEWRPTWARNWKPKDVYKNRSIELVQQQNVQLSLTEATEKAKQEFEKAGKDFLVETIKLGKLLRPNHLWGYYLFPDCYNHHYKKPGYNGSCFNVEIKRNDDLSWLWNESTALYPSIYLNTQQSPVAATLYVRNRVREAIRVSKIPDAKSPLPVFAYTRIVFTDQVLKFLSQDELVYTFGETVALGASGIVIWGTLSIMRSMKSCLLLDNYMETILNPYIINVTLAAKMCSQVLCQEQGVCIRKNWNSSDYLHLNPDNFAIQLEKGGKFTVRGKPTLEDLEQFSEKFYCSCYSTLSCKEKADVKDTDAVDVCIADGVCIDAFLKPPMETEEPQIFYNASPSTLS
modifications: PEGylated; pegvorhyaluronidase alfa
- Efficacy in randomized clinical trials [1]: not efficacious
